From patent US9801960B2, “Probe for a biological specimen and labelling method and screening method using the probe” (CANON KABUSHIKI KAISHA, priority 2008, dated 2017)

Tested on: Zebrafish juveniles
Assay: In vivo labelling of Zebrafish juveniles with probe for biological specimen
Parameters: key to Staining property: +++: stained; −: no stained; key to Fluorescence sensitivity: +++: strongly observed; ++: moderately observed; +: weakly observed; −: no stained
Details: 10 ng/mL in water, 1 hour, stereoscopic microscope
How it was run: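 Five zebrafish juveniles were immersed in distilled water containing staining compound at 10 ng/mL (DMSO solution) for 1 hour. They were then washed three times with Egg Water, immobilised in 3% methylcellulose and imaged by stereomicroscope. Staining and fluorescence intensity were scored visually on a +++ to − scale.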

| SMILES | Site(s) to be labelled |
| --- | --- |
| O=C(O)CN1C(=O)/C(=C\c2cc(Br)c3c(c2)C2CCCC2N3Cc2ccccc2)SC1=S (stereo not drawn) [Dye 116] | blood vessel, gallbladder, and gastrointestinal |
| CCN1c2ccc(/C=C3/SC(=S)N(CCC(=O)O)C3=O)cc2C2CCCC21 (stereo not drawn) [Dye 123] | gallbladder and gastrointestinal tract |
| CCN1c2ccc(/C=C/c3sc4ccccc4[n+]3CC(=O)O)cc2C2CCCC21 (stereo not drawn) [Dye 124] | nose |
| COc1ccc(N2c3ccc(/C=C4/SC(=S)N(CCC(=O)O)C4=O)cc3C3CCCC32)cc1 (stereo not drawn) [Dye 127] | blood vessel, liver, and gastrointestinal tract |
| COc1ccc(N2c3ccc(/C=C4\C(=O)N(c5ccccc5)N=C4C(=O)O)cc3C3CCCC32)cc1 (stereo not drawn) [Dye 128] | blood vessel, liver, and gastrointestinal tract |
| O=C(O)CCN1C(=O)/C(=C\c2ccc3c(c2)C2CCCC2N3c2ccccc2)SC1=S (stereo not drawn) [Dye 129] | blood vessel, gallbladder, and gastrointestinal |
| O=C(O)CCN1C(=O)/C(=C\c2ccc3c(c2)C2CCCC2N3c2ccccc2)SC1=S (stereo not drawn) [Dye 130] | blood vessel, liver, and gastrointestinal tract |
| COc1ccc(N2c3ccc(/C=C(/C#N)C(=O)O)cc3C3CCCC32)cc1 (stereo not drawn) [Dye 131] | liver and gastrointestinal tract |
| C=CCN1C(=O)/C(=c2\s/c(=C/c3ccc4c(c3)C3CCCC3N4c3ccc(OC)cc3)c(=O)n2CC(=O)O)SC1=S (stereo not drawn) [Dye 132] | blood vessel |
| C=CCN1C(=O)/C(=c2\s/c(=C/c3ccc4c(c3)C3CCCC3N4c3ccccc3)c(=O)n2CC(=O)O)SC1=S (stereo not drawn) [Dye 133] | blood vessel |
| CSc1ccc(N2c3ccc(/C=C(/C#N)C(=O)O)cc3C3CCCC32)cc1 (stereo not drawn) [Dye 134] | blood vessel |
| CSc1ccc(N2c3ccc(/C=C(/C#N)C(=O)O)cc3C3CCCC32)cc1 (stereo not drawn) [Dye 135] | blood vessel |

Same assay, conditions: 10 ng/mL, 1 hour, fluorescence intensity visually evaluated

| SMILES | Fluorescence sensitivity |
| --- | --- |
| O=C(O)CN1C(=O)/C(=C\c2cc(Br)c3c(c2)C2CCCC2N3Cc2ccccc2)SC1=S (stereo not drawn) [Dye 116] | ++ |
| CCN1c2ccc(/C=C3/SC(=S)N(CCC(=O)O)C3=O)cc2C2CCCC21 (stereo not drawn) [Dye 123] | +++ |
| CCN1c2ccc(/C=C/c3sc4ccccc4[n+]3CC(=O)O)cc2C2CCCC21 (stereo not drawn) [Dye 124] | +++ |
| COc1ccc(N2c3ccc(/C=C4/SC(=S)N(CCC(=O)O)C4=O)cc3C3CCCC32)cc1 (stereo not drawn) [Dye 127] | +++ |
| COc1ccc(N2c3ccc(/C=C4\C(=O)N(c5ccccc5)N=C4C(=O)O)cc3C3CCCC32)cc1 (stereo not drawn) [Dye 128] | ++ |
| O=C(O)CCN1C(=O)/C(=C\c2ccc3c(c2)C2CCCC2N3c2ccccc2)SC1=S (stereo not drawn) [Dye 129] | +++ |
| O=C(O)CCN1C(=O)/C(=C\c2ccc3c(c2)C2CCCC2N3c2ccccc2)SC1=S (stereo not drawn) [Dye 130] | +++ |
| COc1ccc(N2c3ccc(/C=C(/C#N)C(=O)O)cc3C3CCCC32)cc1 (stereo not drawn) [Dye 131] | +++ |
| C=CCN1C(=O)/C(=c2\s/c(=C/c3ccc4c(c3)C3CCCC3N4c3ccc(OC)cc3)c(=O)n2CC(=O)O)SC1=S (stereo not drawn) [Dye 132] | +++ |
| C=CCN1C(=O)/C(=c2\s/c(=C/c3ccc4c(c3)C3CCCC3N4c3ccccc3)c(=O)n2CC(=O)O)SC1=S (stereo not drawn) [Dye 133] | +++ |
| CSc1ccc(N2c3ccc(/C=C(/C#N)C(=O)O)cc3C3CCCC32)cc1 (stereo not drawn) [Dye 134] | +++ |
| CSc1ccc(N2c3ccc(/C=C(/C#N)C(=O)O)cc3C3CCCC32)cc1 (stereo not drawn) [Dye 135] | +++ |

Same assay, conditions: 10 ng/mL, 1 hour, visually evaluated

| SMILES | Staining property |
| --- | --- |
| O=C(O)CN1C(=O)/C(=C\c2cc(Br)c3c(c2)C2CCCC2N3Cc2ccccc2)SC1=S (stereo not drawn) [Dye 116] | +++ |
| CCN1c2ccc(/C=C3/SC(=S)N(CCC(=O)O)C3=O)cc2C2CCCC21 (stereo not drawn) [Dye 123] | +++ |
| CCN1c2ccc(/C=C/c3sc4ccccc4[n+]3CC(=O)O)cc2C2CCCC21 (stereo not drawn) [Dye 124] | +++ |
| COc1ccc(N2c3ccc(/C=C4/SC(=S)N(CCC(=O)O)C4=O)cc3C3CCCC32)cc1 (stereo not drawn) [Dye 127] | +++ |
| COc1ccc(N2c3ccc(/C=C4\C(=O)N(c5ccccc5)N=C4C(=O)O)cc3C3CCCC32)cc1 (stereo not drawn) [Dye 128] | +++ |
| O=C(O)CCN1C(=O)/C(=C\c2ccc3c(c2)C2CCCC2N3c2ccccc2)SC1=S (stereo not drawn) [Dye 129] | +++ |
| O=C(O)CCN1C(=O)/C(=C\c2ccc3c(c2)C2CCCC2N3c2ccccc2)SC1=S (stereo not drawn) [Dye 130] | +++ |
| COc1ccc(N2c3ccc(/C=C(/C#N)C(=O)O)cc3C3CCCC32)cc1 (stereo not drawn) [Dye 131] | +++ |
| C=CCN1C(=O)/C(=c2\s/c(=C/c3ccc4c(c3)C3CCCC3N4c3ccc(OC)cc3)c(=O)n2CC(=O)O)SC1=S (stereo not drawn) [Dye 132] | +++ |
| C=CCN1C(=O)/C(=c2\s/c(=C/c3ccc4c(c3)C3CCCC3N4c3ccccc3)c(=O)n2CC(=O)O)SC1=S (stereo not drawn) [Dye 133] | +++ |
| CSc1ccc(N2c3ccc(/C=C(/C#N)C(=O)O)cc3C3CCCC32)cc1 (stereo not drawn) [Dye 134] | +++ |
| CSc1ccc(N2c3ccc(/C=C(/C#N)C(=O)O)cc3C3CCCC32)cc1 (stereo not drawn) [Dye 135] | +++ |

Tested on: not listed separately
Assay: Storage stability of staining compound solution in DMSO
Format: physicochemical
Details: 10 ng/mL in DMSO, closed glass container, normal temperature, 1 month; rate of change of absorbance and fluorescence intensity
How it was run: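 Compounds held as 10 ng/mL DMSO solutions in closed glass containers at normal temperature for 1 month. Rates of change in absorbance and fluorescence intensity at a given wavelength versus start were scored: +++ <5%, ++ 5–15%, − >15%.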

| SMILES | Storage stability |
| --- | --- |
| O=C(O)CN1C(=O)/C(=C\c2cc(Br)c3c(c2)C2CCCC2N3Cc2ccccc2)SC1=S (stereo not drawn) [Dye 116] | +++ (rates of change of the absorbance and the fluorescence intensity are less than 5%, and thus, the storage stability is highly excellent) |
| CCN1c2ccc(/C=C3/SC(=S)N(CCC(=O)O)C3=O)cc2C2CCCC21 (stereo not drawn) [Dye 123] | +++ (rates of change of the absorbance and the fluorescence intensity are less than 5%, and thus, the storage stability is highly excellent) |
| CCN1c2ccc(/C=C/c3sc4ccccc4[n+]3CC(=O)O)cc2C2CCCC21 (stereo not drawn) [Dye 124] | +++ (rates of change of the absorbance and the fluorescence intensity are less than 5%, and thus, the storage stability is highly excellent) |
| COc1ccc(N2c3ccc(/C=C4/SC(=S)N(CCC(=O)O)C4=O)cc3C3CCCC32)cc1 (stereo not drawn) [Dye 127] | +++ (rates of change of the absorbance and the fluorescence intensity are less than 5%, and thus, the storage stability is highly excellent) |
| COc1ccc(N2c3ccc(/C=C4\C(=O)N(c5ccccc5)N=C4C(=O)O)cc3C3CCCC32)cc1 (stereo not drawn) [Dye 128] | +++ (rates of change of the absorbance and the fluorescence intensity are less than 5%, and thus, the storage stability is highly excellent) |
| O=C(O)CCN1C(=O)/C(=C\c2ccc3c(c2)C2CCCC2N3c2ccccc2)SC1=S (stereo not drawn) [Dye 129] | +++ (rates of change of the absorbance and the fluorescence intensity are less than 5%, and thus, the storage stability is highly excellent) |
| O=C(O)CCN1C(=O)/C(=C\c2ccc3c(c2)C2CCCC2N3c2ccccc2)SC1=S (stereo not drawn) [Dye 130] | +++ (rates of change of the absorbance and the fluorescence intensity are less than 5%, and thus, the storage stability is highly excellent) |
| COc1ccc(N2c3ccc(/C=C(/C#N)C(=O)O)cc3C3CCCC32)cc1 (stereo not drawn) [Dye 131] | +++ (rates of change of the absorbance and the fluorescence intensity are less than 5%, and thus, the storage stability is highly excellent) |
| C=CCN1C(=O)/C(=c2\s/c(=C/c3ccc4c(c3)C3CCCC3N4c3ccc(OC)cc3)c(=O)n2CC(=O)O)SC1=S (stereo not drawn) [Dye 132] | +++ (rates of change of the absorbance and the fluorescence intensity are less than 5%, and thus, the storage stability is highly excellent) |
| C=CCN1C(=O)/C(=c2\s/c(=C/c3ccc4c(c3)C3CCCC3N4c3ccccc3)c(=O)n2CC(=O)O)SC1=S (stereo not drawn) [Dye 133] | +++ (rates of change of the absorbance and the fluorescence intensity are less than 5%, and thus, the storage stability is highly excellent) |
| CSc1ccc(N2c3ccc(/C=C(/C#N)C(=O)O)cc3C3CCCC32)cc1 (stereo not drawn) [Dye 134] | +++ (rates of change of the absorbance and the fluorescence intensity are less than 5%, and thus, the storage stability is highly excellent) |
| CSc1ccc(N2c3ccc(/C=C(/C#N)C(=O)O)cc3C3CCCC32)cc1 (stereo not drawn) [Dye 135] | +++ (rates of change of the absorbance and the fluorescence intensity are less than 5%, and thus, the storage stability is highly excellent) |

Tested on: not listed separately
Assay: Excitation and fluorescence emission wavelength measurement
Format: physicochemical
Parameters: Stokes shift (λem − λex): unit not given here
Details: aqueous solution: 10 mg/mL solution in DMSO diluted 500-fold with purified water
Procedure: It should be noted that the excitation wavelength and the fluorescence emission wavelength of the staining compound were determined by measuring an aqueous solution, which had been obtained by diluting 500-fold a 10 mg/mL solution of the staining compound in DMSO with purified water, with a fluorescence spectrophotometer FL 4500 manufactured by Hitachi High-Technologies Corporation.

| SMILES | Excitation wavelength λex [nm] | Fluorescence emission wavelength λem [nm] | Stokes shift (λem − λex) |
| --- | --- | --- | --- |
| O=C(O)CN1C(=O)/C(=C\c2cc(Br)c3c(c2)C2CCCC2N3Cc2ccccc2)SC1=S (stereo not drawn) [Dye 116] | 486 | 606 | 120 |
| CCN1c2ccc(/C=C3/SC(=S)N(CCC(=O)O)C3=O)cc2C2CCCC21 (stereo not drawn) [Dye 123] | 564 | 651 | 87 |
| CCN1c2ccc(/C=C/c3sc4ccccc4[n+]3CC(=O)O)cc2C2CCCC21 (stereo not drawn) [Dye 124] | 605 | 618 | 13 |
| COc1ccc(N2c3ccc(/C=C4/SC(=S)N(CCC(=O)O)C4=O)cc3C3CCCC32)cc1 (stereo not drawn) [Dye 127] | 564 | 651 | 87 |
| COc1ccc(N2c3ccc(/C=C4\C(=O)N(c5ccccc5)N=C4C(=O)O)cc3C3CCCC32)cc1 (stereo not drawn) [Dye 128] | 530 | 690 | 160 |
| O=C(O)CCN1C(=O)/C(=C\c2ccc3c(c2)C2CCCC2N3c2ccccc2)SC1=S (stereo not drawn) [Dye 129] | 522 | 611 | 89 |
| O=C(O)CCN1C(=O)/C(=C\c2ccc3c(c2)C2CCCC2N3c2ccccc2)SC1=S (stereo not drawn) [Dye 130] | 541 | 619 | 78 |
| COc1ccc(N2c3ccc(/C=C(/C#N)C(=O)O)cc3C3CCCC32)cc1 (stereo not drawn) [Dye 131] | 440 | 580 | 140 |
| C=CCN1C(=O)/C(=c2\s/c(=C/c3ccc4c(c3)C3CCCC3N4c3ccc(OC)cc3)c(=O)n2CC(=O)O)SC1=S (stereo not drawn) [Dye 132] | 530 | 680 | 150 |
| C=CCN1C(=O)/C(=c2\s/c(=C/c3ccc4c(c3)C3CCCC3N4c3ccccc3)c(=O)n2CC(=O)O)SC1=S (stereo not drawn) [Dye 133] | 510 | 690 | 180 |
| CSc1ccc(N2c3ccc(/C=C(/C#N)C(=O)O)cc3C3CCCC32)cc1 (stereo not drawn) [Dye 134] | 440 | 600 | 160 |
| CSc1ccc(N2c3ccc(/C=C(/C#N)C(=O)O)cc3C3CCCC32)cc1 (stereo not drawn) [Dye 135] | 430 | 600 | 170 |
